Reference: US8835377B2, “Oral delivery of peptide pharmaceutical compositions” (UGP Therapeutics, Inc., priority 2004, dated 2014)

Assay: Pharmacokinetics after duodenal injection of unformulated or formulated Dmt-DALDA in anesthetized rats (plasma, HPLC-UV)
Format: in vivo
Details: rats, formulated solution containing citric acid and lauroyl carnitine
Method: In the experiments represented in the subject Figure, six anesthetized rats (which were color-coded as: red, white, blue, orange, green and yellow) were given 0.7 mL Dmt-DALDA (1.6 mg/mL) with a syringe through a 27 gauge needle into the duodenum. This injection procedure was followed due to the technical difficulty inherent in preparing capsules which can be swallowed by small animals the size of a rat. The intraduodanal injection, therefore, mimics the release of the components of an enteric-coated capsule formulation which would pass through the esophagus and stomach and release its contents in the duodenum. Three of the rats (red, white and blue) were given Unformulated Dmt-DALDA in which there were no additional components (i.e., other than the Dmt-DALDA), while the other three rats (orange, green and yellow) were given Formulated Dmt-DALDA which included, in addition to the Dmt-DALDA, 0.5M citric acid and lauroyl carnitine (10 mg/ml). Samples of blood were taken from the carotid artery through an indwelling catheter before and 5, 15, 30, 60 and 120 minutes after the administration of the respective formulations (i.e., Formulated and Unformulated). The blood samples were centrifuged and the resulting plasma supernatants were stored frozen at −20° C. […] Peptide was detected with an ultraviolet (UV) detector set at a wavelength of 210 nm. […] Table I, moreover, provides the standard deviations for the data obtained regarding each of the test rats, which standard deviations are also indicated in FIG. 1.
Table II (below) summarizes the pharmacokinetic parameters in rats of orally administered unformulated and formulated Dmt-DALDA as those terms are defined above. Cmax refers to the maximum concentration of peptide detected in the rat plasma. The area under the curve (AUC) is a measure of the extent of peptide absorption and is calculated by the trapezoidal rule from a plot of peptide concentration as a function of time. Tmax indicates when the maximum concentration of the Dmt-DALDA in the blood serum was obtained.

In the case of `Cc1cc(O)cc(C)c1C[C@H](N)C(=O)N[C@H](CCCNC(=N)N)C(=O)N[C@@H](Cc1ccccc1)C(=O)N[C@@H](CCCCN)C(N)=O` [Dmt-DALDA, H-2,6-dimethyltyrosine-D-Arginine-Phenylalanine-Lysine-NH2], the “Cmax and AUC, formulated solution vs unformulated” value is reported as “significantly enhanced”.
